Patent US20260373183A1, “ANTIBIOTIC-RESISTANT ARTIFICIAL NUCLEOSIDE, COMPOSITION AND METHOD” (priority 2022, published 2026)

Assays:
[1] = test system: Pseudomonas aeruginosa strains (VIM-2, SPM-1, IMP-1, OXA-50, ATCC 27853, PA01); assay: checkerboard MIC experiments, 5-NIdR combined with aztreonam/avibactam; format: cell-based
Experimental: 5-NIdR alone was not active, displaying individual MICs>512 μg/ml against these strains.

bacterial persisters = assay: fluorescence and SEM of bacterial persisters treated with aztreonam/avibactam with or without 5-NIdR (FIG. 5); format: cell-based
Description: First, the artificial nucleoside inhibits TLS activity in response to ROS generated by β-lactams, and this serves to enhance the cytotoxicity of this class of antibiotics. […] These two features represent a novel approach to attack drug-resistant bacteria.

O=[N+]([O-])c1ccc2c(ccn2[C@H]2C[C@H](O)[C@@H](CO)O2)c1 [5-NIdR, 5-nitro-indolyl-2′-deoxynucleoside]
activity of 5-NIdR alone ([1]; 5-NIdR alone, against these strains): not active
fold reduction in the MICs for aztreonam/avibactam ([1]; 5-NIdR combined with aztreonam/avibactam, 5-NIdR concentrations as low as 0.5 μg/ml, all strains listed): > 10 -fold
MIC ([1]; Pseudomonas aeruginosa, ATCC27853, read-out: minimal inhibitory concentrations (MICs)): > 512 µg/mL
lowest 5-NIdR concentration required to achieve a >10-fold reduction in the MICs for aztreonam/avibactam ([1]; combined with β-lactams (aztreonam/avibactam), all Pseudomonas aeruginosa strains listed): 0.5 μg/ml
cell-killing effects in checkerboard analysis ([1]; combining 5-NIdR with aztreonam/avibactam in drug-resistant bacteria (FIG. 3A-F)): synergistic cell-killing effects
inhibitory activity in checkerboard experiments ([1]; variable concentrations of 5-NIdR combined with variable concentrations of aztreonam/avibactam): excellent inhibitory activity
influence on formation of persisters induced by antibiotic treatment (bacterial persisters; 5-NIdR added to aztreonam/avibactam, panel d): does not appear to influence formation of persisters
viability of filamentous persisters (bacterial persisters; 5-NIdR combined with aztreonam/avibactam): adversely affects the viability of filamentous persisters
morphology of persisters (fluorescence and SEM) (bacterial persisters; 5-NIdR combined with aztreonam/avibactam, panels d, e): formation of “ghost” apoptotic saccules which represent non-viable persisters that do not undergo reversion
